Test results from patent US3996205A, “Aminoglycoside antibiotics and intermediates” (The Upjohn Company, priority 1975, dated 1976).

Key:
S. hemolyticus UC 152 = experiment: microplate test in BHI agar, S. hemolyticus UC 152; format: cell-based, Streptococcus hemolyticus; details: tested again (table 4), same conditions
Experimental: (§1) Compounds were also tested in a standard microplate test in Brain Heart Infusion (BHI) Agar, at a concentration of 1 mg/ml. Incubation is at 37° and end points are read at 20 hours. Brain Heart Infusion Agar (supplied by Difco Laboratories, Detroit, Michigan, U.S.A.) has the following composition:
(§2) Compounds (7β), (7α) and (9) were tested again along with compounds (11) and (14β) against a neamine control using the same conditions as given above.

K. pneumoniae UC 58 = experiment: microplate test in BHI agar, K. pneumoniae UC 58; format: cell-based; details: tested again (table 4), same conditions
Experimental: as §1, §2

P. rettgeri UC 339 = experiment: microplate test in BHI agar, P. rettgeri UC 339; format: cell-based; details: table 4, same conditions
Experimental: as §1, §2

S. typhi TG-3 = experiment: microplate test in BHI agar, S. typhi TG-3; format: cell-based; details: table 4, same conditions
Experimental: as §1, §2

For `NC[C@H]1O[C@H](O[C@H]2[C@H](O)[C@@H](O)[C@H](N)C[C@@H]2N)[C@H](N)[C@@H](O)[C@@H]1O` [Neamine, neamine], the “Minimum Inhibitory Concentration” value (S. hemolyticus UC 152) was 3.9 µg/mL, the “Minimum Inhibitory Concentration” value (K. pneumoniae UC 58) was 3.9 µg/mL and the “Minimum Inhibitory Concentration” value (P. rettgeri UC 339) was 1000 µg/mL. The “Minimum Inhibitory Concentration” value (S. typhi TG-3) was 15.6 µg/mL.
